In patent US20050009005A1, “Methods of using quantitative lipid metabolome data” (Lipomics Technologies, Inc., priority 2001, published 2005):

System: de novo fatty acid synthesis
Test: Lipid metabolite profile of plasma, heart, liver and inguinal adipose of CL316,243-treated mice (trial 2; Tables 7 and 8)
Type: in vivo
Conditions: Liver, mean
Description: It is understood that the described methods can be used to analyze lipid metabolites from other subjects, including particularly animals other than mice.
Mouse tissue and plasma samples were a generous donation to Lipomics Technologies, Inc., from Dr. Edward Leiter of the Jackson Laboratory (Bar Harbor, Me.). Samples included the plasma, heart, liver and inguinal adipose of mice treated with pharmaceuticals or their corresponding controls.
In trial 2, male, inbred NON mice were fed a control with or without the presence of the β-3 adrenergic agonist CL316,243 for four weeks (at 0.001% CL316,243 by weight in the dietary chow).
In both studies, five treated and five control mice were used. Following the treatments and the killing of the mice, tissues and plasma were taken, chilled to −80 ° C. and shipped to the analysis laboratory at Lipomics Technologies in a frozen state.
Tissue processing and lipid extraction, including provision of internal standards, was carried out essentially as described in Watkins et al. (J. Lipid Res. Papers in Press, 10.1184/jlf.M200169-JLF200, published August 16, 2002), and in co-owned international application PCT/US02/21426, entitled “GENERATING, VIEWING, INTERPRETING, AND UTILIZING A QUANTITATIVE DATABASE OF METABOLITES,” both of which are incorporated in their entirety herein by reference.
The separation of lipid classes was performed in some instance by preparative thin-layer chromatography (TLC). To remove any residual metal or other damaging contaminants on the TLC plates, each plate was washed prior to use. Washing the plates is a three-step process that involves impregnating each plate with ethylenediamine tetraacetic acid (EDTA) and rinsing the plates once with methanol and once with chloroform. Each plate is first impregnated with 1 mM EDTA, pH 5.5, by ascending development using the method of Ruiz (J. Lipid Res. 38, 1482-1489, 1997). After each plate was completely developed, it was dried in air overnight. Once dry, each plate was developed in methanol, dried, and developed in chloroform in the same direction as the development with EDTA. The washed plates were then dried in air. Just prior to use, each plate was activated by heating to 110° C. for 10 minutes.
To prepare the TLC chamber for chromatography, Whatman (Clifton, N.J.) filter paper was cut into 20×80-cm strips and wrapped around the inside wall of a 30×60×10-cm glass development chamber. One hundred milliliters of the appropriate mobile phase was added to the chamber, and the chambers were sealed and allowed to equilibrate. Chambers were considered equilibrated when the solvent front had completely ascended the filter paper. The mobile phase employed for the separation of phospholipid classes (lyso-phospholipids, sphingomyelin, phosphatidylcholine, phosphatidylserine, phosphatidylethanolamine and cardiolipin) was a modification of the solvent system described by Holub and Skeaf (“Nutritional regulation of cellular phosphatidylinositol,” in Methods in Enzymology, ed. Conn, P. M. (Academic Press, Inc., Orlando), pp. 234-243, 1987) consisting of chloroform/methanol/acetic acid/water (100:67:7:4, by volume).
For the separation of neutral lipid classes (free fatty acids, free sterols, triacylglycerides and cholesterol esters), a solvent system consisting of petroleum ether/diethyl ether/acetic acid (80:20:1, by volume) was used (Mangold, Thin Layer Chromatography—A Laboratory Handbook (Springer-Verlag, New York), 1969).
After the TLC plate was activated, the sample extracts were spotted onto the activated plate. As a general rule, samples were spotted at an estimated concentration such that no single lipid class was present at more than 25 jig per centimeter of plate width following chromatography. This ensured that the plate was not overloaded and minimized the risk of cross-contamination between lipid classes (cross-contamination is readily identified during sample analysis as each lipid class contains unique internal standards). […]

C[C@H](Cc1ccc2c(c1)OC(C(=O)[O-])(C(=O)[O-])O2)NC[C@H](O)c1cccc(Cl)c1.[Na+].[Na+] [CL316,243]
Total nMole of FA (FFA): 9555.8 nanomoles per gram
14:0 (PC): 69.0 nanomoles per gram
16:0 (PC): 11221.7 nanomoles per gram
16:1n7 (PC): 358.8 nanomoles per gram
18:0 (PC): 5889.5 nanomoles per gram
18:1n7 (PC): 741.3 nanomoles per gram
18:1n9 (PC): 3855.0 nanomoles per gram
Saturates (PC): 17292.7 nanomoles per gram
Total n7 (PC): 1100.1 nanomoles per gram
Total n9 (PC): 3964.0 nanomoles per gram
Total nMole of FA (PC): 19052.2 nanomoles per gram
14:0 (PE): 13.1 nanomoles per gram
16:0 (PE): 4406.0 nanomoles per gram
16:1n7 (PE): 117.9 nanomoles per gram
18:0 (PE): 3777.4 nanomoles per gram
18:1n7 (PE): 247.4 nanomoles per gram
18:1n9 (PE): 1320.6 nanomoles per gram
Saturates (PE): 8245.4 nanomoles per gram
Total n7 (PE): 365.3 nanomoles per gram
Total n9 (PE): 1376.1 nanomoles per gram
Total nMole of FA (PE): 9924.9 nanomoles per gram
14:0 (PL): 91.0 nanomoles per gram
16:0 (PL): 16120.7 nanomoles per gram
16:1n7 (PL): 586.5 nanomoles per gram
18:0 (PL): 12438.5 nanomoles per gram
18:1n7 (PL): 1242.7 nanomoles per gram
18:1n9 (PL): 5839.1 nanomoles per gram
Saturates (PL): 29247.6 nanomoles per gram
Total n7 (PL): 1829.2 nanomoles per gram
Total n9 (PL): 6261.0 nanomoles per gram
Total nMole of FA (PL): 34731.4 nanomoles per gram
14:0 (PS/I): 19.9 nanomoles per gram
16:0 (PS/I): 898.1 nanomoles per gram
16:1n7 (PS/I): 37.8 nanomoles per gram
18:0 (PS/I): 4313.9 nanomoles per gram
18:1n7 (PS/I): 100.2 nanomoles per gram
18:1n9 (PS/I): 486.8 nanomoles per gram
Saturates (PS/I): 5283.6 nanomoles per gram
Total n7 (PS/I): 138.0 nanomoles per gram
Total n9 (PS/I): 607.6 nanomoles per gram
Total nMole of FA (PS/I): 5625.0 nanomoles per gram
14:0 (TAG): 207.9 nanomoles per gram
16:0 (TAG): 6580.5 nanomoles per gram
16:1n7 (TAG): 675.6 nanomoles per gram
18:0 (TAG): 668.7 nanomoles per gram
18:1n7 (TAG): 619.4 nanomoles per gram
18:1n9 (TAG): 7123.9 nanomoles per gram
Saturates (TAG): 7585.2 nanomoles per gram
Total n7 (TAG): 1295.0 nanomoles per gram
Total n9 (TAG): 7280.9 nanomoles per gram
Total nMole of FA (TAG): 6910.6 nanomoles per gram
14:0 (lipid class CE): 2.5 percentage of total fatty acids
16:0 (lipid class CE): 27.3 percentage of total fatty acids
16:1n7 (lipid class CE): 4.9 percentage of total fatty acids
18:0 (lipid class CE): 7.1 percentage of total fatty acids
18:1n7 (lipid class CE): 1.8 percentage of total fatty acids
18:1n9 (lipid class CE): 25.4 percentage of total fatty acids
Saturates (lipid class CE): 39.0 percentage of total fatty acids
Total (lipid class CE): 100.0 percentage of total fatty acids
Total n7 (lipid class CE): 6.7 percentage of total fatty acids
Total n9 (lipid class CE): 26.9 percentage of total fatty acids
14:0 (lipid class CL): 0.4 percentage of total fatty acids
16:0 (lipid class CL): 4.9 percentage of total fatty acids
16:1n7 (lipid class CL): 1.5 percentage of total fatty acids
18:0 (lipid class CL): 4.7 percentage of total fatty acids
18:1n7 (lipid class CL): 4.4 percentage of total fatty acids
18:1n9 (lipid class CL): 8.7 percentage of total fatty acids
Saturates (lipid class CL): 10.4 percentage of total fatty acids
Total (lipid class CL): 25.0 percentage of total fatty acids
Total n7 (lipid class CL): 5.9 percentage of total fatty acids
Total n9 (lipid class CL): 9.4 percentage of total fatty acids
14:0 (lipid class FFA): 1.6 percentage of total fatty acids
16:0 (lipid class FFA): 24.0 percentage of total fatty acids
16:1n7 (lipid class FFA): 3.9 percentage of total fatty acids
18:0 (lipid class FFA): 4.9 percentage of total fatty acids
18:1n7 (lipid class FFA): 2.8 percentage of total fatty acids
18:1n9 (lipid class FFA): 23.7 percentage of total fatty acids
Saturates (lipid class FFA): 31.2 percentage of total fatty acids
Total (lipid class FFA): 100.0 percentage of total fatty acids
Total n7 (lipid class FFA): 6.7 percentage of total fatty acids
Total n9 (lipid class FFA): 24.2 percentage of total fatty acids
14:0 (lipid class PC): 0.2 percentage of total fatty acids
16:0 (lipid class PC): 29.4 percentage of total fatty acids
16:1n7 (lipid class PC): 0.9 percentage of total fatty acids
18:0 (lipid class PC): 15.5 percentage of total fatty acids
18:1n7 (lipid class PC): 1.9 percentage of total fatty acids
18:1n9 (lipid class PC): 10.1 percentage of total fatty acids
Saturates (lipid class PC): 45.4 percentage of total fatty acids
Total (lipid class PC): 50.0 percentage of total fatty acids
Total n7 (lipid class PC): 2.9 percentage of total fatty acids
Total n9 (lipid class PC): 10.4 percentage of total fatty acids
14:0 (lipid class PE): 0.1 percentage of total fatty acids
16:0 (lipid class PE): 22.2 percentage of total fatty acids
16:1n7 (lipid class PE): 0.6 percentage of total fatty acids
18:0 (lipid class PE): 19.1 percentage of total fatty acids
18:1n7 (lipid class PE): 1.2 percentage of total fatty acids
18:1n9 (lipid class PE): 6.6 percentage of total fatty acids
Saturates (lipid class PE): 41.5 percentage of total fatty acids
Total (lipid class PE): 50.0 percentage of total fatty acids
Total n7 (lipid class PE): 1.8 percentage of total fatty acids
Total n9 (lipid class PE): 6.9 percentage of total fatty acids
14:0 (lipid class PL): 0.1 percentage of total fatty acids
16:0 (lipid class PL): 23.2 percentage of total fatty acids
16:1n7 (lipid class PL): 0.8 percentage of total fatty acids
18:0 (lipid class PL): 17.9 percentage of total fatty acids
18:1n7 (lipid class PL): 1.8 percentage of total fatty acids
18:1n9 (lipid class PL): 8.4 percentage of total fatty acids
Saturates (lipid class PL): 42.1 percentage of total fatty acids
Total (lipid class PL): 50.0 percentage of total fatty acids
Total n7 (lipid class PL): 2.6 percentage of total fatty acids
Total n9 (lipid class PL): 9.0 percentage of total fatty acids
14:0 (lipid class PS/I): 0.2 percentage of total fatty acids
16:0 (lipid class PS/I): 8.0 percentage of total fatty acids
16:1n7 (lipid class PS/I): 0.3 percentage of total fatty acids
18:0 (lipid class PS/I): 38.4 percentage of total fatty acids
18:1n7 (lipid class PS/I): 0.9 percentage of total fatty acids
18:1n9 (lipid class PS/I): 4.3 percentage of total fatty acids
Saturates (lipid class PS/I): 47.0 percentage of total fatty acids
Total (lipid class PS/I): 50.0 percentage of total fatty acids
Total n7 (lipid class PS/I): 1.2 percentage of total fatty acids
